Assay results as given in EP4810052A2, “HCRHR2 SELECTIVE POLYPEPTIDES” (Gubra A/S, priority 2023, dated 2026).
Read-outs that look alike come from different tables or passages of the source. Starred links: 1 amine or outer side, 2 acyl side, 3 side chain; linkers in the order of their positions; H or OH if unused. Non-standard residues stand in square brackets, D forms with d. Residues, ends and D or L forms follow the SMILES beside them. Groups on a side chain read outwards from the residue. *: point of attachment. C20 diacid = O=C(O)CCCCCCCCCCCCCCCCCCC(=O)*; γGlu = O=C(O)[C@H](CCC(=O)[*:2])N[*:1]; NMeI = CC[C@H](C)[C@H](NC)C(=O)O; Nle = CCCC[C@H](N)C(=O)O; AEEA = NCCOCCOCC(=O)O; Aib = CC(C)(N)C(=O)O

Legend:
[1] = Chemical stability of purified peptides (RP-UHPLC main peak purity loss); type: physicochemical
Experimental: Chemical stability was tested at a concentration of approximately of 1.0 mg/ml peptide in the following vehicles: 50 mM phosphate buffer pH 7.5. Dissolved samples were incubated for at least 2 h at room temperature on a rocking table. The main peak purity at time zero (T0) was determined using reversed phase chromatography. The samples were incubated at 40°C for 14 days (T14) and 28 days (T28). The samples were analyzed with reversed phase chromatography and size exclusion chromatography.
Reversed Phase chromatography was performed on a Thermo Dionex Ultimate UHPLC system with UV detection at 215 nm) and equipped with a Kinetex column (1.7 µm, C8, 100 Å, 150 x 2.1 mm (00F-4499-AN)). Analysis was performed by gradient elution with buffer A (0.1% TFA in 95:5 H2O:acetonitrile) and buffer B (0.1% TFA in 5:95 H2O: acetonitrile) at a column temperature of 50 °C (gradient used 25-55%B over 40 min. Flowrate was 0.5 mL/min. The main peak purity was determined from the integrated chromatogram as the area under the main peak relative to the total peak area. The purity loss was calculated as the difference between the T0 and T14 time point and/or as the difference between the T0 and T28 time point.
The chemical stability of selected peptides was evaluated at varying pH's at 40° C over 28 days. Samples were prepared and analysed as described in procedure with the addition of pH adjusting samples to the targets indicated below. As a comparator,r commercially available semaglutide drug product (Ozempic®, Novo Nordisk) was included in the sample set.

[2] = pH 7.5
[3] = Thioflavin T fibril formation assay of purified peptides; type: physicochemical; design: key: Amyloid fibril formation detected by an increase in ThT fluorescence was denoted with "Yes"; samples without increasing ThT fluorescence hence not forming amyloid fibrils were denoted "No"
Experimental: Thioflavin T fibril formation assay: Peptides were dissolved as 267 µM in 50 mM phosphate buffer pH 7.5 for 2 h at room temperature on a rocking table. The samples were then divided into three replicates of 80 µl/well and mixed with 2 µl/well Thioflavin T (ThT)to a final concentration of 4 µM ThT in a black 384 well microplate with a clear bottom (Greiner #781096). The plate was inserted in a CLARIOstar Plus microplate reader (BMG Labtech) and fibril formation was measured as an increase in fluorescence emission at 480 nm (excitation at 450 nm) during 96 h at 40°C with cycles of 5 min rest and 5 min linearshaking at700 rpm.
Compounds were dissolved to 200 µM (ca 1.0 mg/ml) in 50 mM phosphate buffer with preparation and ThT assay performed as described in the "General procedure for determination of fibril formation of peptides." above. Furthermore, samples were adjusted to pH values as indicated below. Additional co-formulations of compounds with semaglutide were prepared by dissolving compounds to 200 µM in commercially available semaglutide drug product (Ozempic®); these co-formulations were adjusted to pH 7.4.

hCRHR2 = target: T1, hCRHR2 (Homo sapiens, UniProt Q13324); test: HTRF cAMP assay, determination of hCRHR2 potency (peptide libraries 5 conc., purified peptides 11 conc.); type: cell-based
T1 sequence (Q13324 1-411): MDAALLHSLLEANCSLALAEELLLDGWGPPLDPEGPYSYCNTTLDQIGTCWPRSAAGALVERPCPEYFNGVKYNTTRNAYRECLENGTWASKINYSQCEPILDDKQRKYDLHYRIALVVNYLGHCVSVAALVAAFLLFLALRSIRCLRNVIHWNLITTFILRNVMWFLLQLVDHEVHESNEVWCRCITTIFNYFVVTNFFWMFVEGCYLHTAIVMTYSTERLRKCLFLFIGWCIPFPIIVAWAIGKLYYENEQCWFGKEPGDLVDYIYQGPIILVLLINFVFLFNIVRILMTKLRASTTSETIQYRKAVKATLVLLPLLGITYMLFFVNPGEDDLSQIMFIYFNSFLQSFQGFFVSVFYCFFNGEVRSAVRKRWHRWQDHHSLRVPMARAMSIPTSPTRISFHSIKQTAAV
Summary of the method: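 Read-out was HTRF competitive cAMP detection (d2-labelled cAMP, cryptate-labelled antibody) in suspended, freshly thawed CHO-K1 cells stably carrying human CRHR2.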

hCRHR1 = target: T2, hCRHR1 (Homo sapiens, UniProt P34998); test: HTRF cAMP assay, determination of hCRHR1 potency (peptide libraries 5 conc., purified peptides 11 conc.); type: cell-based
T2 sequence (P34998 24-415): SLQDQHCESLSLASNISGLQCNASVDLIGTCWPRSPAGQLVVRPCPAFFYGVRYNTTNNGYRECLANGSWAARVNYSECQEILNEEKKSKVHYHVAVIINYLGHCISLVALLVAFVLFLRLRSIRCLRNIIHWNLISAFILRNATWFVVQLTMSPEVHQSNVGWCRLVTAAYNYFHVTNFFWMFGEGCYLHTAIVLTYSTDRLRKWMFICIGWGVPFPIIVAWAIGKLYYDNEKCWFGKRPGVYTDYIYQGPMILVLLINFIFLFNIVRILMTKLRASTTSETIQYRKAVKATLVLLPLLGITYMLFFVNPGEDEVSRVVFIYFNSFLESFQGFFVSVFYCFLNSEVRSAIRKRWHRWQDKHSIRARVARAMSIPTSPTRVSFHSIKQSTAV
Summary of the method: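 Cellular cAMP was read by time-resolved FRET between d2-labelled cAMP and cryptate anti-cAMP antibody. The cells were freshly thawed suspension CHO-K1 cells stably expressing human CRHR1.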

[4] = purified peptides, CHO-K1 cells stably expressing hCRHR2, cAMP HTRF, read-out: hCRHR2 EC50
[5] = purified peptides, CHO-K1 cells stably expressing hCRHR1, cAMP HTRF, read-out: hCRHR1 EC50

| Chemical stability at pH 7.5 after 14 days at 40°C (% degradation) ([1]; pH 7.5, 14 days, 40°C) [%] | Chemical stability at pH 7.5 after 28 days at 40°C (% degradation) ([1]; pH 7.5, 28 days, 40°C) [%] | Solubility pH 7.5, target conc. =10 mg/mL (measured mg/mL) [2] [mg/mL] | Fibrillation (pH 7.5) ([3]; pH 7.5) | Selectivity ratio (hCRHR1/ hCRHR2) (hCRHR2; Table 5) | EC50 (hCRHR2; Table 5, purified peptides, read-out: hCRHR2 EC50) [nM] | EC50 (hCRHR2; library peptides, matched molecular pairs L vs Nle in position X^38, read-out: Potency hCRHR2 pEC50 (converted)) [nM] | EC50 (hCRHR1; Table 5, purified peptides, read-out: hCRHR1 EC50) [nM] | EC50 (hCRHR1; library peptides, matched molecular pairs L vs Nle in position X^38, read-out: Potency hCRHR1 pEC50 (converted)) [nM] | Chemical stability at pH 7.5 after 28 days at 40°C (% degradation) ([1]; pH 7.5, 40°C, 28 days, second value of cell) [%] | Fibrillation (pH 7.5) ([3]; pH 7.5, ThT assay) | Selectivity ratio (hCRHR1/ hCRHR2) (hCRHR2; hCRHR1-EC50/hCRHR2-EC50) | EC50 (hCRHR2; [4]) [nM] | EC50 (hCRHR1; [5]) [nM] | Chemical stability at pH 7.5 after 14 days at 40°C (% degradation) ([1]; pH 7.5, 40°C, 14 days, first value of cell) | SMILES |
| --- | --- | --- | --- | --- | --- | --- | --- | --- | --- | --- | --- | --- | --- | --- | --- |
| -3.2 | -10 | 9.5 | No | >9091 | 0.55 | 0.316 | > 5000 | 7940 | – | – | – | – | – | – | CCCC[C@H](NC(=O)[C@@H](NC(=O)[C@H](CCC(=O)O)NC(=O)[C@H](C)NC(=O)[C@H](CC(N)=O)NC(=O)[C@@H](NC(=O)[C@H](CCCCNC(=O)COCCOCCNC(=O)COCCOCCNC(=O)CC[C@H](NC(=O)CC[C@H](NC(=O)CCCCCCCCCCCCCCCCCCC(=O)O)C(=O)O)C(=O)O)NC(=O)[C@H](C)NC(=O)[C@H](CCC(N)=O)NC(=O)[C@H](CCC(=O)O)NC(=O)[C@H](CCCNC(=N)N)NC(=O)[C@H](C)NC(=O)[C@H](C)NC(=O)[C@H](CCCNC(=N)N)NC(=O)[C@H](C)NC(=O)[C@H](CCCNC(=N)N)NC(=O)[C@H](C)NC(=O)[C@H](CCC(N)=O)NC(=O)[C@H](CO)NC(=O)[C@H](CC(C)C)NC(=O)[C@H](CC(C)C)NC(=O)[C@@H](NC(=O)[C@H](CCC(N)=O)NC(=O)[C@H](CC(C)C)NC(=O)[C@H](CC(C)C)NC(=O)CNC(=O)[C@@H](NC(=O)[C@@H]1CCCN1C(=O)[C@@H](NC(=O)[C@H](CC(=O)O)NC(=O)[C@H](CC(C)C)NC(=O)[C@H](CO)NC(=O)[C@H](CC(C)C)NC(=O)[C@@H](NC(=O)[C@@H](N)[C@@H](C)CC)C(C)C)C(C)C)[C@@H](C)CC)[C@@H](C)CC)[C@@H](C)O)[C@@H](C)CC)C(=O)N[C@@H](C)C(=O)N[C@@H](CCC(=O)O)C(=O)N[C@H](C(N)=O)C(C)C [compound 83] (H-IVLSLDVPIGLLQILLSQARARAAREQAK([AEEA-AEEA-γGlu-γGlu-C20 diacid])TNAEI[Nle]AEV-NH2) |
| – | – | 9.8 | – | – | – | – | – | – | -23 | No | >2000 | 2.5 | > 5000 | – | CC[C@H](C)[C@H](NC(=O)[C@H](CCC(=O)O)NC(=O)[C@H](C)NC(=O)[C@H](CC(N)=O)NC(=O)[C@@H](NC(=O)[C@H](CCCCNC(=O)COCCOCCNC(=O)COCCOCCNC(=O)CC[C@H](NC(=O)CC[C@H](NC(=O)CCCCCCCCCCCCCCCCCCC(=O)O)C(=O)O)C(=O)O)NC(=O)[C@H](C)NC(=O)[C@H](CCC(N)=O)NC(=O)[C@H](CCC(=O)O)NC(=O)[C@H](CCCNC(=N)N)NC(=O)[C@H](C)NC(=O)[C@H](C)NC(=O)[C@H](CCCNC(=N)N)NC(=O)[C@H](C)NC(=O)[C@H](CCCNC(=N)N)NC(=O)[C@H](C)NC(=O)[C@H](CCC(N)=O)NC(=O)[C@H](CCC(=O)O)NC(=O)[C@H](CC(C)C)NC(=O)[C@H](CC(C)C)NC(=O)[C@@H](NC(=O)[C@H](CCC(N)=O)NC(=O)[C@H](CC(C)C)NC(=O)[C@H](CC(C)C)NC(=O)CNC(=O)[C@@H](NC(=O)[C@@H]1CCCN1C(=O)[C@@H](NC(=O)[C@H](CC(=O)O)NC(=O)[C@H](CC(C)C)NC(=O)[C@H](CO)NC(=O)[C@H](CC(C)C)NC(=O)[C@@H](NC(=O)[C@@H]1CCCN1)C(C)C)C(C)C)[C@@H](C)CC)[C@@H](C)CC)[C@@H](C)O)C(=O)N[C@@H](CC(C)C)C(=O)N[C@@H](C)C(=O)N[C@@H](CCC(=O)O)C(=O)N[C@H](C(N)=O)C(C)C [SEQ ID NO: 7] (H-PVLSLDVPIGLLQILLEQARARAAREQAK([AEEA-AEEA-γGlu-γGlu-C20 diacid])TNAEILAEV-NH2) |
| – | – | 10 | – | – | – | – | – | – | – | No | >4167 | 1.2 | > 5000 | -1.4 / ND % | CC[C@H](C)[C@H](NC)C(=O)N[C@H](C(=O)N[C@@H](CC(C)C)C(=O)N[C@@H](CO)C(=O)N[C@@H](CC(C)C)C(=O)N[C@@H](CC(=O)O)C(=O)N[C@H](C(=O)N1CCC[C@H]1C(=O)N[C@H](C(=O)NCC(=O)N[C@@H](CC(C)C)C(=O)N[C@@H](CC(C)C)C(=O)N[C@@H](CCC(N)=O)C(=O)N[C@H](C(=O)N[C@@H](CC(C)C)C(=O)N[C@@H](CC(C)C)C(=O)N[C@@H](CCC(=O)O)C(=O)N[C@@H](CCC(N)=O)C(=O)N[C@@H](C)C(=O)N[C@@H](CCCNC(=N)N)C(=O)N[C@@H](C)C(=O)N[C@@H](CCCNC(=N)N)C(=O)N[C@@H](C)C(=O)N[C@@H](C)C(=O)N[C@@H](CCCNC(=N)N)C(=O)N[C@@H](CCC(=O)O)C(=O)N[C@@H](CCC(N)=O)C(=O)N[C@@H](C)C(=O)N[C@@H](CCCCNC(=O)COCCOCCNC(=O)COCCOCCNC(=O)CC[C@H](NC(=O)CC[C@H](NC(=O)CCCCCCCCCCCCCCCCCCC(=O)O)C(=O)O)C(=O)O)C(=O)NC(C)(C)C(=O)N[C@@H](CC(N)=O)C(=O)N[C@@H](C)C(=O)N[C@@H](CCC(=O)O)C(=O)N[C@H](C(=O)N[C@@H](CC(C)C)C(=O)N[C@@H](C)C(=O)N[C@@H](CCC(=O)O)C(=O)N[C@H](C(N)=O)C(C)C)[C@@H](C)CC)[C@@H](C)CC)[C@@H](C)CC)C(C)C)C(C)C [SEQ ID NO: 20] (H-[NMeI]VLSLDVPIGLLQILLEQARARAAREQAK([AEEA-AEEA-γGlu-γGlu-C20 diacid])[Aib]NAEILAEV-NH2) |
